O=Cc1ccc(O)c(Br)c1
solubility (mole fraction)
Settings | 278.15 K | 283.15 K | 288.15 K | 293.15 K | 298.15 K | 303.15 K | 308.15 K | 313.15 K | 318.15 K | 323.15 K
in 1,4-dioxane | – | – | 0.016 | 0.0188 | 0.022 | 0.0255 | 0.0297 | 0.0345 | 0.0402 | 0.0471
in DMF | 0.0129 | 0.0148 | 0.0171 | 0.02 | 0.0236 | 0.0275 | 0.0321 | 0.0372 | 0.0426 | 0.0488
in DMSO | – | – | – | 0.0177 | 0.0202 | 0.0235 | 0.0278 | 0.0332 | 0.0396 | 0.0467
in acetonitrile | 0.00714 | 0.00815 | 0.00947 | 0.0111 | 0.013 | 0.0152 | 0.0179 | 0.0207 | 0.0238 | 0.0273
in cyclohexane | – | 0.000283 | 0.000369 | 0.000478 | 0.000609 | 0.000766 | 0.000949 | 0.00115 | 0.00139 | 0.00167
in ethanol | 0.00755 | 0.00852 | 0.00981 | 0.0116 | 0.0137 | 0.0161 | 0.0188 | 0.0219 | 0.0254 | 0.0293
in ethyl acetate | 0.00956 | 0.011 | 0.0127 | 0.015 | 0.0176 | 0.0209 | 0.0244 | 0.0287 | 0.0332 | 0.0384
in ethylene glycol | 0.00584 | 0.00666 | 0.00772 | 0.00903 | 0.0107 | 0.0126 | 0.0149 | 0.0177 | 0.0211 | 0.0252
in isobutanol | 0.00978 | 0.0112 | 0.0131 | 0.0155 | 0.0183 | 0.0215 | 0.0251 | 0.0293 | 0.0336 | 0.0386
in isopropanol | 0.0079 | 0.00892 | 0.0104 | 0.0123 | 0.0144 | 0.0171 | 0.0201 | 0.0235 | 0.0272 | 0.0317
in methanol | 0.00568 | 0.00645 | 0.00751 | 0.00881 | 0.0103 | 0.0121 | 0.0142 | 0.0165 | 0.019 | 0.0221
in n-butanol | 0.0106 | 0.0122 | 0.0144 | 0.0168 | 0.0197 | 0.023 | 0.0269 | 0.0313 | 0.0364 | 0.0423
in n-octanol | 0.012 | 0.0138 | 0.0162 | 0.0192 | 0.0226 | 0.0267 | 0.0314 | 0.0365 | 0.0427 | 0.0498
in n-pentanol | 0.0115 | 0.0132 | 0.0153 | 0.0181 | 0.0215 | 0.0252 | 0.0295 | 0.0343 | 0.0401 | 0.0467
in n-propanol | 0.00865 | 0.01 | 0.0117 | 0.0138 | 0.0162 | 0.0191 | 0.0225 | 0.0264 | 0.0308 | 0.0361
in water | 5.93e-05 | 7.11e-05 | 9.02e-05 | 0.000116 | 0.00015 | 0.000196 | 0.00025 | 0.000314 | 0.000395 | 0.000493
